Legend:
arthritis pain = conditions: cited from earlier work
[1] = tested on: patients with osteoporosis; assay: Zoledronic Acid alone or with prednisone (ZP), single infusion in osteoporosis patients: post-dosing syndrome; format: in vivo, human; conditions: four patients per arm
Protocol: Eight patients with osteoporosis were treated with a single infusion of Zoledronic Acid alone (four patients) or with a single infusion of the combination of prednisone and Zoledronic Acid (ZP, four patients).

[2] = tested on: subjects with osteoarthritis; assay: Joint pain (VAS scale) in the osteoarthritis subjects of the first study; format: in vivo, human; conditions: six months after the single infusion (one ZP subject up to one year); three ZP, two Zoledronic Acid subjects with osteoarthritis
Protocol: Of the 8 subjects, five had osteoarthritis. Of these five, three were treated with ZP and two with Zoledronic Acid.

[3] = tested on: subjects with knee osteoarthritis; assay: Single blind, single center study of intravenous ZP or ZA in knee osteoarthritis; format: in vivo, human
Protocol: In a further study, this one, a single blind, single center study, 20 subjects with knee osteoarthritis were randomized to either intravenous ZP or ZA in a 1:1 ratio. Subjects were followed for six months. Efficacy was measured by change in pain in 100 mm visual analogue score (VAS) from baseline (mean values). Patients were asked about the level of pain without taking rescue medications (NSAIDS or tramadol). Bone mineral density (BMD) was determined at baseline and six months to detect any effect on bone.

patients = conditions: Zometa Prescribing Information; cited from earlier work
[4] = in vivo; cited from earlier work

Compound	effect on arthritis pain (arthritis pain; IV, by itself)	duration of effect (arthritis pain; in vivo)	patients suffering from post-dosing syndrome (PDS) [1]	change in joint pain (VAS scale) [2]	ΔBMD ([3]; bone mineral density, baseline versus six months)	Δ Mean VAS ([3]; change in pain in 100 mm visual analogue score from baseline (mean values), six months follow-up, without rescue medications) [mm]	PDS (# reporting/total) ([3]; intravenous, 10 subjects per cohort, knee osteoarthritis)	patients affected by post-dosing syndrome (PDS) (patients) [%]	half-life (t1/2α) [4]
C[C@]12C=CC(=O)C=C1CC[C@@H]1[C@@H]2[C@@H](O)C[C@@]2(C)[C@H]1CC[C@]2(O)C(=O)CO [Prednisolone]	no effect on arthritis pain	transient, less than a day	–	–	–	–	–	–	–
O=P(O)(O)C(O)(Cn1ccnc1)P(=O)(O)O [Zoledronic Acid]	–	–	All four	same (one) or worse (one) level of pain	0	−10	6/10	≤ 44	about 0.24 hours

Source: patent US8859530B2, “Co-administration of steroids and zoledronic acid to prevent and treat osteoarthritis” (Voltarra Pharmaceuticals, Inc., priority 2013, dated 2014)
